Broadly, the Vdss is a proportionality between amount in the body and measured concentration, not a real space. Read a high Vdss as extensive tissue distribution. The term Cmax denotes the highest concentration seen after dosing. The term Tmax denotes the time from dosing to the highest level.

Series [1] in a line: Plasma protein binding rate test (equilibrium dialysis), rat. Type of series: in vitro ADME, SD rats. To be noted: 2 μM, equilibrium dialysis 37° C. 4 hours, SD rat plasma. The protocol: Experimental purpose: To evaluate the protein binding rate of the compounds of the present disclosure in the plasma of CD-1 mice, SD rats, beagle dogs, cynomolgus monkeys and humans using equilibrium dialysis.
The test compounds were diluted with dialysis buffer into the plasma of the above five species to prepare samples with a final concentration of 2 μM. The samples were then added to a 96-well equilibrium dialysis device and dialyzed using phosphate buffered saline solution at 37° C. for 4 hours. Warfarin was used as a control compound in the experiment. The concentration of the test compounds and warfarin in the plasma and buffer was determined using LC-MS/MS. The free fraction of the compound was calculated by the following formula: PPB_Unbound (%)=100*FC/TC, where FC is the concentration of the compound at the buffer end of the dialysis plate; TC is the concentration of the compound at the plasma end of the dialysis plate; To is the concentration of the compound in the plasma sample at time zero.
For orientation: Equilibrium dialysis compares concentrations on both sides of a semipermeable membrane.

Series [2] in a line: Pharmacokinetic study in rats. In kind it is in vivo, Male SD rats. To be noted: rat. On the procedure: Male SD rats (6 to 8 weeks old, weighing 200 to 300 g) were selected.
Injection administration (IV) was carried out at a dose of 1 mpk and a concentration of 0.20 mg/mL with a vehicle of 20% PEG400/10% solutol/70% water. Oral administration (PO) was carried out at a dose of 10 mpk and a concentration of 1 mg/mL with a vehicle of 20% PEG400/10% solutol/70% water.
Sample collection: 0.03 mL of blood samples were collected by puncture of the saphenous vein in experimental animals at each time point, and the actual blood collection time was recorded.
All blood samples were added to commercial 1.5 mL EDTA-K2 anticoagulant tubes. After blood sample collection, DDV was added into the plasma matrix as a stabilizer, wherein the ratio of plasma to Dichlorvos (DDV) solution was 40:1. The DDV solution was a 40 mM DDV solution in acetonitrile/water (1:1). Within half an hour, the mixture was centrifuged at 4° C. and 3000 g for 10 minutes. The supernatant plasma was aspirated, quickly placed in dry ice and stored in a −80° C. refrigerator for LC-MS/MS analysis.
A non-compartmental model in Phoenix WinNonlin 6.3 pharmacokinetic software was used to process the plasma concentration data. The pharmacokinetic parameters were calculated using the linear-log trapezoidal method. C0: concentration needed immediately after intravenous injection; Cmax: the highest plasma drug concentration after administration; Tmax: time needed to reach drug peak concentration after administration; T1/2: time needed for plasma drug concentration to decrease by half; Vdss: apparent volume of distribution, refers to the proportional constant between the amount of drug in the body and the plasma drug concentration when the drug reaches dynamic equilibrium in the body. Cl: clearance rate, refers to the apparent volume of distribution of the drug cleared from the body per unit time; AUC0-last: area under the drug time curve, refers to the area surrounded by the plasma drug concentration curve against the time axis; F: bioavailability.

Series [3] has as its system Caco-2 cells. Nature of the series: In vitro Caco-2 cell permeability test. In kind it is in vitro ADME. To be noted: Caco-2, 2 μM, 120 minutes. On the procedure: Cell culture was performed using MEM (minimum essential medium) supplemented with 2 mM L-glutamine, 10% fetal bovine serum (FBS), 100 U/mL penicillin-G and 100 μg/mL streptomycin. Cell culture conditions were 37±1° C., 5% CO2 and saturated humidity. When the cells reached a density of 80 to 90%, trypsin (0.05%, w/v)/EDTA (0.02%, w/v) digestion solution was added to digest the cells before seeding the plate. Cells were seeded in BD Falcon Transwell-96 well plates at a seeding density of 1×10^5 cells/cm^2. The cells were incubated in a carbon dioxide incubator for 22 days and then used for transport experiments.
Hank's balanced salt buffer (pH 7.40±0.05) containing 10 mM HEPES was used as the transport buffer in this project. The bidirectional transport of the test compound and the positive drug digoxin was tested at a concentration of 2 μM, with two parallel samples each, and the transport of fenoterol and propranolol from the apical to the basal end (A-B) was tested. The concentration of DMSO in the incubation system was controlled to 1% or less. After loading the sample, the cell plate was incubated at 37±1° C., 5% CO2 and saturated humidity for 120 minutes. All samples were vortexed and centrifuged at 3220 rpm and 20° C. for 20 minutes. The control sample and test sample were diluted in a 1:1 (v/v) ratio with ultrapure water and stored at 4° C., and the analytical tests were performed by liquid chromatography tandem mass spectrometry (LC/MS/MS).
In this study, the liquid chromatography tandem mass spectrometry (LC/MS/MS) method was used to semi-quantitatively analyze the peak area ratios of the test compounds and control samples fenoterol, propranolol and digoxin to the internal standard in the starting solution, receiving solution and administration well supernatant. The apparent permeability coefficient (Papp, cm/s), efflux rate and recovery rate were calculated using the following formula: • (1) Papp=(dCr/dt)×Vr/(A×C0), dCr/dt is the cumulative concentration of the compound at the receiving end per unit time (μM/s); Vr is the volume of the solution at the receiving end (0.075 mL and 0.250 mL for the solution at the apical and basal ends, respectively); A is the relative surface area of the cell monolayer (0.0804 cm^2); C0 is the starting concentration (nM) of the test sample at the administration end or the peak area ratio of the control sample. • (2) Efflux ratio=Papp(BA)/Papp(AB) • (3) Recovery rate (%)=100×[(Vr×Cr)+(Vd×Cd)]/(Vd×C0), C0 is the starting concentration (nM) of the test sample at the administration end or the peak area ratio of the control sample; Vd is the volume at the administration end (0.075 mL on the apical side and 0.250 mL on the basal side); Cd and Cr are the final concentration (nM) of the test sample or the peak area ratio of the control sample at the administration and receiving ends, respectively.
(Caco-2 cells form a polarised layer with tight junctions and transporters.)

With `COc1cc(C)c2[nH]ccc2c1CN1C2CCC1(c1ccc(C(=O)O)cc1)CC(C1CC1)C2` (single isomer, unassigned) [Compound 3B], the “Plasma protein binding (PPB) unbound, Rat (R)” value in series [1] was found to be 14.1%. In series [2] (IV 1 mpk), this compound returned an AUC0-last of 10.573 µM·h, a C0 of 6.2 µM, a Cl of 3.5 mL/min/kg and a T1/2 of 2.06 h. In series [2] (IV 1 mpk), this compound returned a Vdss of 0.53 L/kg. In series [2] (PO 10 mpk), the AUC0-last was 33.029 µM·h, the peak level (Cmax) was 7.83 µM, the T1/2 was 9.90 h and the Tmax is on record as 0.50 h. The F in series [2] (PO 10 mpk vs IV 1 mpk) was 31.2%. Moreover, the Apparent permeability coefficient in series [3] (pH 7.40, direction not given) is listed as 1.21 10^−6 cm/s. Besides, in series [3] (Papp(BA)/Papp(AB)), the Efflux ratio turned out to be 22.6.

The record behind these values is patent US20260055107A1, “SERIES OF NITROGEN-CONTAINING BRIDGED HETEROCYCLIC COMPOUNDS AND PREPARATION METHOD THEREFOR” (CMS RESEARCH & DEVELOPMENT PTE. LTD., priority 2022, published 2026).
